Source: patent publication US10132029B2, “Method for reducing adhesion of microorganisms to fabrics” (priority 2013, dated 2018)

What was measured:
[1] = system: S. aureus DSMZ 20231; experiment: Syto9 microtiter plate assay: adhesion of bacteria to coated polyester fabric samples; format: cell-based, Staphylococcus aureus; conditions: for Reduction in adhered bacteria [%]: S. aureus, polyester; for Reduction in adhered bacteria [%] S. aureus: polyester fabric, application concentration 0.1 wt %, commercial product applied directly by padding, relative to uncoated fabric
Protocol: Circular fabric samples with a diameter of 0.6 cm were punched from coated and uncoated cotton and polyester fabrics. The fabric samples were fixed to a microtiter plate. The fabric samples were washed with acetone and sterilized with UV light for 60 minutes.
The strains were coated fresh from glycerol bacterial cultures onto tryptic soy agar (TSA). Incubation took place overnight at 33° C. The nutrient medium prepared was a tryptic soy broth (TSB), with 30% of the amount recommended by the manufacturer, supplemented with 0.25% of glucose. […] The nutrient medium was inoculated with the bacterial cultures and after inoculation was cultivated overnight at 37° C. and 160 rpm.
The resulting overnight cultures were centrifuged at 8500 g for 15 minutes and washed with 50 ml of isotonic saline solution (0.9 wt %). Bacterial suspensions in isotonic saline solutions were prepared. The optical density of the various bacterial suspensions was determined at 595 nm and adjusted to a level of about 1.2.
50 μl of the final microorganism suspension in isotonic saline solution (0.9 wt %) prepared as described under 2.2 were added to the coated and uncoated fabric samples fixed on the microtiter plate (see 2.1). The microtiter plates were closed and sealed off with Parafilm. The microtiter plates were placed in an antievaporation box and incubated at 33° C. for 2 h and at 40 rpm. The expected colony-forming unit count (CFU) of the inoculum at the start was 10^6-10^7 CFU/ml.
After the biofilm had formed, the planctonic cells were removed and used as a sample for determining the optical density at 595 nm. For this purpose, the samples were made up to a volume of 150 μl, and 100 μl were withdrawn for the optical density determination in a photometer. The optical density of the corresponding control solution with sterile isotonic saline solution was subtracted from the optical densities found. Through the determination of the planctonic cells after the formation of biofilm, the amount of bacteria available for adhesion was monitored.
The fabric samples and the resulting biofilm were washed three times with 200 to 300 μl of isotonic saline solution.
The fabric samples obtained under 2.4 (after formation of biofilm) were placed together with 100 μl of isotonic saline solution into wells of a 96-well microtiter plate.
Investigations into the removal of the adhered microorganisms from the fabric surfaces were carried out with vortexing, ultrasound, with enzymatic treatment, or with combinations thereof. Treatment in the vortex amounted to 5 minutes and was performed horizontally. The ultrasound treatment was carried out in an ultrasound bath for 5 minutes. For the enzymatic removal, the fabric samples were treated with enzymes, such as trypsin or a mixture of different enzymes, for example, during incubation at 37° C. for 1 hour.
Following removal of the adhered bacteria, the fabric samples were removed from the microtiter plates.
The number of removed bacteria in the resulting suspension was determined by staining with Syto9 and fluorescence measurement (fluorescence filter with excitation at 485/20 nm and emission at 528/20 nm) or by staining with BacTiterGlo and bioluminescence measurement. Furthermore, it is possible to determine the number of adhered and removed microorganisms by means of protein assay (e.g., BCA assay, Bradford Assay) or optical density proliferation assay.
The relative variables (e.g., fluorescence units (RFU)) concerning the coated and uncoated fabrics were compared, allowing the reduction in adhered bacteria in % to be determined in accordance with the following formula: Reduction in adhered bacteria[%]=[(RFUuc−RFUuc)/RFUuc]*100 where • RFUuc=relative fluorescence units of the removed bacteria of the uncoated substrate • RFUc=relative fluorescence units of the removed bacteria of the coated substrate […]

[2] = system: Staphylococcus aureus; experiment: Antimicrobial activity of coated polyester fabric samples as per JIS L 1902; format: cell-based; conditions: for Antimicrobial activity[log] Unwashed: 18 hours at 37° C.
Protocol: The procedure here is that the fabric sample was inoculated with a defined amount of a microbial suspension (inoculum). Test specimens with a weight of approximately 0.4 g were investigated in a triplicate determination.
The inoculated fabric sample was incubated in a closed system at 37° C. over a period of 18 hours. Following incubation, the bacteria of a defined amount of a dilution solution were recorded. The difference in the bacterial count of the fabric sample at 0 hours in comparison to the fabric sample after 18 hours served as a basis for evaluation. The antimicrobial activity is reported as a logarithmic or percentage value. Here, a reduction in the microbe count of 0% corresponds to inadequate antimicrobial action, a microbe reduction in the range from 0.1 to less than 90% to an inadequate antibacterial action, and a microbe reduction of greater than 90% to a good antibacterial action.

[3] = system: Escherichia coli; experiment: Bacterial adhesion to coated glass slides via fluorescence microscopy (DAPI); format: cell-based; conditions: for Reduction in cell count relative to control [%] E. coli: coated glass slide vs uncoated glass control K; for Cell count [1/cm^2] E. coli: glass slide coated from 0.1% strength solution, bacterial suspension 10^9 microbes/ml, 30 measuring windows
Source text: Silane derivatives S1, S3, S4 and S5 as identified above in example 1 were used to produce coatings on glass slides. As a control (comparison sample) K, an uncoated glass slide cleaned with isopropanol was used.
For the coating of the slides they were immersed for 60 seconds into a 0.1% strength solution of the corresponding silane derivative in ethanol/water as solvent with a water fraction of 5%. The solutions had been adjusted with acetic acid beforehand to a pH in the range from 4 to 5. The wetted slides were subsequently dried at 160° C. for 1 hour.
The slides wetted with the bacterial suspension were analyzed by microscope to determine the adhering bacteria. […] The fluorescent dye used was DAPI (4′,6-diamidine-2-phenylindole), which binds to DNA and fluoresces under UV excitation. In order to determine the adhesion characteristics, the cell counts per cm^2 were ascertained in 30 measuring windows, and the adhesion pattern was evaluated. Cell attachment was evaluated on an Olympus IX 51 using the Labflow AnalySIS image processing program.
Bacterial suspensions produced and used were suspensions of test cultures of the strains Staphylococcus aureus and Escherichia coli. The concentration of the bacterial suspension was 10^9 microbes/ml.

[4] = coating concentration 0.001 %, wash pretreatment (A) unwashed
[5] = coating concentration 0.001 %, wash pretreatment (B) washed twice at 30° C. only with water
[6] = coating concentration 0.001 %, wash pretreatment (C) washed once at 30° C. EN ISO 6330 method 8A with ECE B detergent
[7] = coating concentration 0.01 %, wash pretreatment (A) unwashed
[8] = coating concentration 0.01 %, wash pretreatment (B) washed twice at 30° C. only with water
[9] = coating concentration 0.01 %, wash pretreatment (C) washed once at 30° C. EN ISO 6330 method 8A with ECE B detergent
[10] = coating concentration 0.1 %, wash pretreatment (A) unwashed
[11] = coating concentration 0.1 %, wash pretreatment (B) washed twice at 30° C. only with water
[12] = coating concentration 0.1 %, wash pretreatment (C) washed once at 30° C. EN ISO 6330 method 8A with ECE B detergent
[13] = coating concentration 0.001 % based on fabric
[14] = coating concentration 0.01 % based on fabric
[15] = coating concentration 0.1 % based on fabric

Compound: CO[Si](CCCN(CCN(CC(=O)[O-])CC(=O)[O-])CC(=O)[O-])(OC)OC.[Na+].[Na+].[Na+] [S5, N-(trimethoxysilylpropyl)ethylenediaminetriacetyl acid, trisodium salt]
- Reduction in adhered bacteria [%] [1, 4]: 69%
- Reduction in adhered bacteria [%] [1, 5]: 59%
- Reduction in adhered bacteria [%] [1, 6]: 75%
- Reduction in adhered bacteria [%] [1, 7]: 44%
- Reduction in adhered bacteria [%] [1, 8]: 22%
- Reduction in adhered bacteria [%] [1, 9]: 53%
- Reduction in adhered bacteria [%] [1, 10]: 72%
- Reduction in adhered bacteria [%] [1, 11]: 68%
- Reduction in adhered bacteria [%] [1, 12]: 38%
- Reduction in adhered bacteria [%] S. aureus [1]: 46%
- Antimicrobial activity[log] Unwashed [2, 13]: 0.5 log
- Antimicrobial activity[log] Washed once at 30° C., without detergent [2, 13]: −0.3 log
- Antimicrobial activity[log] Washed twice with water [2, 13]: 0.9 log
- Antimicrobial activity[log] Unwashed [2, 14]: −0.3 log
- Antimicrobial activity[log] Washed once at 30° C., without detergent [2, 14]: −0.6 log
- Antimicrobial activity[log] Washed twice with water [2, 14]: −0.2 log
- Antimicrobial activity[log] Unwashed [2, 15]: −0.5 log
- Antimicrobial activity[log] Washed once at 30° C., without detergent [2, 15]: −0.6 log
- Antimicrobial activity[log] Washed twice with water [2, 15]: −0.4 log
- Reduction in cell count relative to control [%] E. coli [3]: 61%
- Cell count [1/cm^2] E. coli [3]: 306 000 1/cm^2

Compound: N-(triethoxysilylpropyl)-O-polyethylene oxide-urethane, (4-6 EO units) [S3]
- Reduction in adhered bacteria [%] [1, 4]: 57%
- Reduction in adhered bacteria [%] [1, 5]: 54%
- Reduction in adhered bacteria [%] [1, 6]: 69%
- Reduction in adhered bacteria [%] [1, 7]: 63%
- Reduction in adhered bacteria [%] [1, 8]: 34%
- Reduction in adhered bacteria [%] [1, 9]: 58%
- Reduction in adhered bacteria [%] [1, 10]: 47%
- Reduction in adhered bacteria [%] [1, 11]: 46%
- Reduction in adhered bacteria [%] [1, 12]: 61%
- Reduction in adhered bacteria [%] S. aureus [1]: 55%
- Antimicrobial activity[log] Unwashed [2, 13]: −0.5 log
- Antimicrobial activity[log] Washed once at 30° C., without detergent [2, 13]: −0.8 log
- Antimicrobial activity[log] Washed twice with water [2, 13]: −0.3 log
- Antimicrobial activity[log] Unwashed [2, 14]: −0.1 log
- Antimicrobial activity[log] Washed once at 30° C., without detergent [2, 14]: −0.1 log
- Antimicrobial activity[log] Washed twice with water [2, 14]: 0.8 log
- Antimicrobial activity[log] Unwashed [2, 15]: 0.0 log
- Antimicrobial activity[log] Washed once at 30° C., without detergent [2, 15]: −0.4 log
- Antimicrobial activity[log] Washed twice with water [2, 15]: 0.3 log
- adhesion of bacteria to coated glass, assessment in words ([3]; both series of tests (S. aureus and E. coli), compared with glass control): very good results
- Reduction in cell count relative to control [%] E. coli [3]: 71%
- Cell count [1/cm^2] E. coli [3]: 233 000 1/cm^2
